Data as given in PubChem BioAssay AID248 (DTP/NCI, 2004).
Toxic doses and inconclusive results are not listed.

Tested on: L1210 leukemia ip in BDF1 mice, survival T/C
Experiment: NCI In Vivo Anticancer Drug Screen. Data for tumor model L1210 Leukemia (intraperitoneal) in B6D2F1 (BDF1) mice
Conditions: endpoint: mean survival time, higher = longer survival
Method in brief: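 In this screen, tumor-bearing mice given compound are compared to those given vehicle, and their survival values are reported as a treated-to-control quotient.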

[1] = dose: 100.0 mg/kg/injection, schedule: Q01DX009 (ip), vehicle: Klucel (hydroxypropylcellulose) (HPC)
[2] = dose: 100.0 mg/kg/injection, schedule: Q01DX001 (ip), vehicle: Klucel (hydroxypropylcellulose) (HPC)
[3] = dose: 200.0 mg/kg/injection, schedule: Q01DX001 (ip), vehicle: Klucel (hydroxypropylcellulose) (HPC)
[4] = dose: 400.0 mg/kg/injection, schedule: Q01DX001 (ip), vehicle: Klucel (hydroxypropylcellulose) (HPC)
[5] = dose: 100.0 mg/kg/injection, schedule: Q01DX009 (ip), vehicle: saline
[6] = dose: 200.0 mg/kg/injection, schedule: Q01DX009 (ip), vehicle: saline
[7] = dose: 400.0 mg/kg/injection, schedule: Q01DX009 (ip), vehicle: saline
[8] = dose: 100.0 mg/kg/injection, schedule: Q04DX002 (ip), vehicle: Klucel (hydroxypropylcellulose) (HPC)
[9] = dose: 200.0 mg/kg/injection, schedule: Q04DX002 (ip), vehicle: Klucel (hydroxypropylcellulose) (HPC)

Cc1c(C)c(N)c(C)c(C)c1N
T/C (dose: 6.25 mg/kg/injection, schedule: Q01DX009 (ip), vehicle: Klucel (hydroxypropylcellulose) (HPC)): 94 % of control
T/C (dose: 12.5 mg/kg/injection, schedule: Q01DX009 (ip), vehicle: Klucel (hydroxypropylcellulose) (HPC)): 94 % of control
T/C (dose: 12.5 mg/kg/injection, schedule: Q04DX003 (ip), vehicle: Klucel (hydroxypropylcellulose) (HPC)): 101 % of control

CCCNC(=O)Nc1ccc(OC)cc1Cl
T/C [1]: 93 % of control
T/C (dose: 200.0 mg/kg/injection, schedule: Q01DX009 (ip), vehicle: Klucel (hydroxypropylcellulose) (HPC)): 93 % of control
T/C (dose: 400.0 mg/kg/injection, schedule: Q01DX009 (ip), vehicle: Klucel (hydroxypropylcellulose) (HPC)): 93 % of control

CC(C)CN(CC(C)C)[N+](=O)[O-]
T/C [2]: 97 % of control
T/C [3]: 114 % of control
T/C [4]: 97 % of control

Cc1nc2ccccc2c(C)c1-c1c(C)nc2ccccc2c1C
T/C [2]: 98 % of control
T/C [5]: 97 % of control
T/C (dose: 100.0 mg/kg/injection, schedule: Q04DX003 (ip), vehicle: saline): 100 % of control
T/C [3]: 108 % of control
T/C [6]: 95 % of control
T/C (dose: 200.0 mg/kg/injection, schedule: Q04DX003 (ip), vehicle: saline): 97 % of control
T/C [4]: 103 % of control
T/C [7]: 94 % of control
T/C (dose: 400.0 mg/kg/injection, schedule: Q04DX003 (ip), vehicle: saline): 94 % of control

CN1CCCCC1c1ccccc1 (stereo not drawn)
T/C (dose: 75.0 mg/kg/injection, schedule: Q01DX001 (ip), vehicle: saline): 103 % of control

CCCCCP(=O)(CCCC)CCCCC
T/C (dose: 50.0 mg/kg/injection, schedule: Q01DX009 (ip), vehicle: Klucel (hydroxypropylcellulose) (HPC)): 89 % of control
T/C [1]: 89 % of control

OCC(F)(F)C(F)(F)C(F)(F)CO
T/C [5]: 87 % of control
T/C [6]: 90 % of control
T/C [7]: 100 % of control

COc1ccc(OCCC(=O)O)cc1
T/C (dose: 100.0 mg/kg/injection, schedule: Q01DX001 (ip), vehicle: saline): 90 % of control
T/C (dose: 200.0 mg/kg/injection, schedule: Q01DX001 (ip), vehicle: saline): 93 % of control

CC(C)=C1N=C(c2ccccc2)OC1=O
T/C [8]: 97 % of control
T/C [9]: 111 % of control
T/C (dose: 400.0 mg/kg/injection, schedule: Q04DX002 (ip), vehicle: Klucel (hydroxypropylcellulose) (HPC)): 111 % of control

NC(=S)N/N=C\c1c[nH]c2cc(C(F)(F)F)ccc12
T/C (dose: 5.0 mg/kg/injection, schedule: Q01DX001 (ip), vehicle: carboxymethylcellulose (CMC)): 101 % of control
T/C (dose: 10.0 mg/kg/injection, schedule: Q01DX001 (ip), vehicle: carboxymethylcellulose (CMC)): 95 % of control
T/C (dose: 20.0 mg/kg/injection, schedule: Q01DX001 (ip), vehicle: carboxymethylcellulose (CMC)): 101 % of control
T/C (dose: 40.0 mg/kg/injection, schedule: Q01DX001 (ip), vehicle: carboxymethylcellulose (CMC)): 101 % of control

COc1cc(C=Nc2ccc3c(c2)ncn3C)ccc1N(CCCl)CCCl
T/C [8]: 153 % of control

CC(C)CCCCCc1ccc(OCCOc2ccc(C(=O)Nc3ccc(S(=O)(=O)F)cc3[N+](=O)[O-])cc2)cc1
T/C [2]: 100 % of control
T/C [3]: 94 % of control
T/C [4]: 94 % of control

Cc1cc(OC(=O)Nc2cccc(Cl)c2)ccc1Cl
T/C (dose: 100.0 mg/kg/injection, schedule: Q01DX009 (ip), vehicle: saline with Tween-80): 91 % of control
T/C (dose: 200.0 mg/kg/injection, schedule: Q01DX009 (ip), vehicle: saline with Tween-80): 93 % of control
T/C (dose: 400.0 mg/kg/injection, schedule: Q01DX009 (ip), vehicle: saline with Tween-80): 95 % of control

CN(C)CCOC(=O)c1ccc(CCl)cc1
T/C (dose: 87.5 mg/kg/injection, schedule: Q01DX009 (ip), vehicle: saline): 87 % of control
T/C (dose: 175.0 mg/kg/injection, schedule: Q01DX009 (ip), vehicle: saline): 101 % of control

Nc1nncc(-c2cnnc(N)n2)n1
T/C (dose: 50.0 mg/kg/injection, schedule: Q04DX002 (ip), vehicle: Klucel (hydroxypropylcellulose) (HPC)): 111 % of control
T/C [8]: 104 % of control
T/C [9]: 111 % of control

CNc1ccccc1C(=O)N/N=C/c1ccc(OC)cc1
T/C (dose: 100.0 mg/kg/injection, schedule: Q04DX002 (ip), vehicle: saline): 102 % of control
T/C (dose: 200.0 mg/kg/injection, schedule: Q04DX002 (ip), vehicle: saline): 99 % of control
T/C (dose: 400.0 mg/kg/injection, schedule: Q04DX002 (ip), vehicle: saline): 102 % of control
